Test results: patent US20230058171A1, “NEW ORAL PHARMACEUTICAL COMPOSITION FOR CANCER THERAPY” (BOEHRINGER INGELHEIM INTERNATIONAL GMBH, priority 2021, published 2023)

Test system: patients
Assay: Trial 1403-0002 combination with ezabenlimab (and anti-LAG3-1): adverse events
Details: for AEs leading to Discontinuation: Dose limiting toxicity, % / AEs leading to Discontinuation: Other adverse event, % / Patients with Dose limiting toxicity (cycle one), % / Serious AEs: Cogenital Anomaly or Birth Defect, % / Serious AEs: Is Life Threatening, % / Serious AEs: Other Medically Important Serious Event, % / Serious AEs: Persists of Signif. Disability/Incapacity, % / Serious AEs: Requires or Prolongs Hospitalization, % / Serious AEs: Results in Death, % / Subjects with AEs leading to Discontinuation of trial drug, % / Subjects with AEs leading to dose reduction of trial drug, % / Subjects with any AE, % / Subjects with immune-related AEs, % / Subjects with infusion related reactions, % / Subjects with investigator defined drug-related AEs, % / Subjects with maximum CTC Grade 1, % / Subjects with maximum CTC Grade 2, % / Subjects with maximum CTC Grade 3, % / Subjects with maximum CTC Grade 4, % / Subjects with maximum CTC Grade 5, % / Subjects with serious AEs, %: triple combination D1 q3w
[1] = double combination with 240 mg ezabenlimab, 15 patients

Cc1c(C(=O)O)ccc2c3n(nc12)[C@@H]1[C@H](C3)N(CC2CC2)[C@@]2(C(=O)Nc3cc(Cl)ccc32)[C@H]1c1cccc(Cl)c1F [MDM2-antagonist of formula I, (2′S,3′S,3a'S,10a'S)-6-chloro-3′-(3-chloro-2-fluorophenyl)-1′-(cyclopropylmethyl)-6′-methyl-2-oxo-1,2,3′,3a′,10′,10a′-hexahydro-1′H-spiro[indole-3,2′-pyrrolo[2′,3′:4,5]pyrrolo[1,2-b]indazole]-7′-carboxylic acid]
DLTs reported after cycle 1 [1]: Four
patients with Grade ≥3 adverse events [1]: eight
patients with Grade ≥3 anemia [1]: 6 patients
patients with Grade ≥3 lymphopenia [1]: 3 patients
patients with Grade ≥3 thrombocytopenia [1]: 4 patients
patients with a DLT during cycle 1 (double combination with 240 mg ezabenlimab, 15 patients, Grade 2 neutropenia at 45 mg): One
safety profile (double combination, 30 mg or 45 mg + 240 mg ezabenlimab D1 q3w): manageable safety profile
AEs leading to Discontinuation: Dose limiting toxicity, % (10 mg): 0%
AEs leading to Discontinuation: Other adverse event, % (10 mg): 0%
Patients with Dose limiting toxicity (cycle one), % (10 mg): 0%
Serious AEs: Cogenital Anomaly or Birth Defect, % (10 mg): 0%
Serious AEs: Is Life Threatening, % (10 mg): 0%
Serious AEs: Other Medically Important Serious Event, % (10 mg): 0%
Serious AEs: Persists of Signif. Disability/Incapacity, % (10 mg): 0%
Serious AEs: Requires or Prolongs Hospitalization, % (10 mg): 0%
Serious AEs: Results in Death, % (10 mg): 0%
Subjects with AEs leading to Discontinuation of trial drug, % (10 mg): 0%
Subjects with AEs leading to dose reduction of trial drug, % (10 mg): 0%
Subjects with any AE, % (10 mg): 100%
Subjects with immune-related AEs, % (10 mg): 0%
Subjects with infusion related reactions, % (10 mg): 33.3%
Subjects with investigator defined drug-related AEs, % (10 mg): 100%
Subjects with maximum CTC Grade 1, % (10 mg): 33.3%
Subjects with maximum CTC Grade 2, % (10 mg): 66.7%
Subjects with maximum CTC Grade 3, % (10 mg): 0%
Subjects with maximum CTC Grade 4, % (10 mg): 0%
Subjects with maximum CTC Grade 5, % (10 mg): 0%
Subjects with serious AEs, % (10 mg): 0%
AEs leading to Discontinuation: Dose limiting toxicity, % (20 mg): 0%
AEs leading to Discontinuation: Other adverse event, % (20 mg): 0%
Patients with Dose limiting toxicity (cycle one), % (20 mg): 0%
Serious AEs: Cogenital Anomaly or Birth Defect, % (20 mg): 0%
Serious AEs: Is Life Threatening, % (20 mg): 0%
Serious AEs: Other Medically Important Serious Event, % (20 mg): 0%
Serious AEs: Persists of Signif. Disability/Incapacity, % (20 mg): 0%
Serious AEs: Requires or Prolongs Hospitalization, % (20 mg): 66.7%
Serious AEs: Results in Death, % (20 mg): 0%
Subjects with AEs leading to Discontinuation of trial drug, % (20 mg): 0%
Subjects with AEs leading to dose reduction of trial drug, % (20 mg): 0%
Subjects with any AE, % (20 mg): 100%
Subjects with immune-related AEs, % (20 mg): 33.3%
Subjects with infusion related reactions, % (20 mg): 0%
Subjects with investigator defined drug-related AEs, % (20 mg): 100%
Subjects with maximum CTC Grade 1, % (20 mg): 0%
Subjects with maximum CTC Grade 2, % (20 mg): 0%
Subjects with maximum CTC Grade 3, % (20 mg): 100%
Subjects with maximum CTC Grade 4, % (20 mg): 0%
Subjects with maximum CTC Grade 5, % (20 mg): 0%
Subjects with serious AEs, % (20 mg): 66.7%
AEs leading to Discontinuation: Dose limiting toxicity, % (30 mg): 0%
AEs leading to Discontinuation: Other adverse event, % (30 mg): 0%
Patients with Dose limiting toxicity (cycle one), % (30 mg): 0%
Serious AEs: Cogenital Anomaly or Birth Defect, % (30 mg): 0%
Serious AEs: Is Life Threatening, % (30 mg): 0%
Serious AEs: Other Medically Important Serious Event, % (30 mg): 0%
Serious AEs: Persists of Signif. Disability/Incapacity, % (30 mg): 0%
Serious AEs: Requires or Prolongs Hospitalization, % (30 mg): 66.7%
Serious AEs: Results in Death, % (30 mg): 0%
Subjects with AEs leading to Discontinuation of trial drug, % (30 mg): 0%
Subjects with AEs leading to dose reduction of trial drug, % (30 mg): 33.3%
Subjects with any AE, % (30 mg): 100%
Subjects with immune-related AEs, % (30 mg): 0%
Subjects with infusion related reactions, % (30 mg): 0%
Subjects with investigator defined drug-related AEs, % (30 mg): 100%
Subjects with maximum CTC Grade 1, % (30 mg): 0%
Subjects with maximum CTC Grade 2, % (30 mg): 33.3%
Subjects with maximum CTC Grade 3, % (30 mg): 33.3%
Subjects with maximum CTC Grade 4, % (30 mg): 33.3%
Subjects with maximum CTC Grade 5, % (30 mg): 0%
Subjects with serious AEs, % (30 mg): 66.7%
AEs leading to Discontinuation: Dose limiting toxicity, % (45 mg): 0%
AEs leading to Discontinuation: Other adverse event, % (45 mg): 0%
Patients with Dose limiting toxicity (cycle one), % (45 mg): 0%
Serious AEs: Cogenital Anomaly or Birth Defect, % (45 mg): 0%
Serious AEs: Is Life Threatening, % (45 mg): 0%
Serious AEs: Other Medically Important Serious Event, % (45 mg): 0%
Serious AEs: Persists of Signif. Disability/Incapacity, % (45 mg): 0%
Serious AEs: Requires or Prolongs Hospitalization, % (45 mg): 50.0%
Serious AEs: Results in Death, % (45 mg): 0%
Subjects with AEs leading to Discontinuation of trial drug, % (45 mg): 0%
Subjects with AEs leading to dose reduction of trial drug, % (45 mg): 50.0%
Subjects with any AE, % (45 mg): 100%
Subjects with immune-related AEs, % (45 mg): 0%
Subjects with infusion related reactions, % (45 mg): 0%
Subjects with investigator defined drug-related AEs, % (45 mg): 100%
Subjects with maximum CTC Grade 1, % (45 mg): 0%
Subjects with maximum CTC Grade 2, % (45 mg): 50.0%
Subjects with maximum CTC Grade 3, % (45 mg): 0%
Subjects with maximum CTC Grade 4, % (45 mg): 50.0%
Subjects with maximum CTC Grade 5, % (45 mg): 0%
Subjects with serious AEs, % (45 mg): 50.0%
AEs leading to Discontinuation: Dose limiting toxicity, % (Total): 0%
AEs leading to Discontinuation: Other adverse event, % (Total): 0%
Patients with Dose limiting toxicity (cycle one), % (Total): 0%
Serious AEs: Cogenital Anomaly or Birth Defect, % (Total): 0%
Serious AEs: Is Life Threatening, % (Total): 0%
Serious AEs: Other Medically Important Serious Event, % (Total): 0%
Serious AEs: Persists of Signif. Disability/Incapacity, % (Total): 0%
Serious AEs: Requires or Prolongs Hospitalization, % (Total): 45.5%
Serious AEs: Results in Death, % (Total): 0%
Subjects with AEs leading to Discontinuation of trial drug, % (Total): 0%
Subjects with AEs leading to dose reduction of trial drug, % (Total): 18.2%
Subjects with any AE, % (Total): 100%
Subjects with immune-related AEs, % (Total): 9.1%
Subjects with infusion related reactions, % (Total): 9.1%
Subjects with investigator defined drug-related AEs, % (Total): 100%
Subjects with maximum CTC Grade 1, % (Total): 9.1%
Subjects with maximum CTC Grade 2, % (Total): 36.4%
Subjects with maximum CTC Grade 3, % (Total): 36.4%
Subjects with maximum CTC Grade 4, % (Total): 18.2%
Subjects with maximum CTC Grade 5, % (Total): 0%
Subjects with serious AEs, % (Total): 45.5%
